Tests used:
[1] = test system: vetch aphid (Megoura viciae); test: Control of vetch aphid on broad bean leaf disks in 24-well microtiter plates (Test B.1); assay type: in vivo
Method: For evaluating control of vetch aphid (Megoura viciae) through contact or systemic means the test unit consisted of 24-well-microtiter plates containing broad bean leaf disks.
The compounds or mixtures were formulated using a solution containing 75% water and 25% DMSO (dimethylsulfoxid). Different concentrations of formulated compounds or mixtures were sprayed onto the leaf disks at 2.5 μl, using a custom built micro atomizer, at two replications.
(§1) For experimental mixtures in these tests identical volumes of both mixing partners at the desired concentrations respectively, were mixed together.
After application, the leaf disks were air-dried and 5-8 adult aphids placed on the leaf disks inside the microtiter plate wells. The aphids were then allowed to suck on the treated leaf disks and incubated at 23±1° C., 50±5% RH (room humidity) for 5 days. Aphid mortality and fecundity was then visually assessed.

[2] = test system: boll weevil (Anthonomus grandis); test: Control of boll weevil, insect diet with eggs in 24-well microtiter plates (Test B.2); assay type: in vivo
Method: For evaluating control of boll weevil (Anthonomus grandis) the test unit consisted of 24-well-microtiter plates containing an insect diet and 20-30 A. grandis eggs.
The compounds or mixtures were formulated using a solution containing 75% water and 25% DMSO. Different concentrations of formulated compounds or mixtures were sprayed onto the […] at 20 μl, using a custom built micro atomizer, at two replications.
as §1
After application, microtiter plates were incubated at 23±1° C., 50±5% RH (room humidity) for 5 days. Egg and larval mortality was then visually assessed.

Structure (SMILES): Cc1cc(C#N)cc(C(N)=O)c1NC(=O)c1cc(Br)nn1-c1ncccc1Cl [IA-26/T4]
- Average (Control %) ([1]; test compound alone, 0.1 ppm (0 + 0.1), 5 days): 0%
- Average (Control %) ([2]; test compound alone, 0.3 ppm (0 + 0.3), 5 days): 0%

Structure (SMILES): Cc1cc(C#N)cc(C(=O)NC2CC2)c1NC(=O)c1cc(Br)nn1-c1ncccc1Cl [IA-326/T4]
- Average (Control %) ([2]; test compound alone, 0.01 ppm (0 + 0.01), 5 days): 0%
- Average (Control %) ([2]; test compound alone, 0.03 ppm (0 + 0.03), 5 days): 0%

Structure (SMILES): O=[N+]([O-])NC1=NCCN1Cc1ccc(Cl)nc1 [Imidacloprid, reference compound]
- Average (Control %) ([1]; Imidacloprid alone, 1 ppm (1 + 0), aphid mortality and fecundity after 5 days): 25%
- Average (Control %) ([2]; Imidacloprid alone, 10 ppm (10 + 0), egg and larval mortality after 5 days): 0%
